These results are taken from patent publication US10100097B2, “GIP-GLP-1 dual agonist compounds and methods” (Zealand Pharma A/S, priority 2012, dated 2018).

Molecules are shown by their SMILES. Square brackets hold non-standard residues; d marks the D form. Peptide text beside a SMILES is read from it. Aib = CC(C)(N)C(=O)O

T1 sequence (P43220 24-463): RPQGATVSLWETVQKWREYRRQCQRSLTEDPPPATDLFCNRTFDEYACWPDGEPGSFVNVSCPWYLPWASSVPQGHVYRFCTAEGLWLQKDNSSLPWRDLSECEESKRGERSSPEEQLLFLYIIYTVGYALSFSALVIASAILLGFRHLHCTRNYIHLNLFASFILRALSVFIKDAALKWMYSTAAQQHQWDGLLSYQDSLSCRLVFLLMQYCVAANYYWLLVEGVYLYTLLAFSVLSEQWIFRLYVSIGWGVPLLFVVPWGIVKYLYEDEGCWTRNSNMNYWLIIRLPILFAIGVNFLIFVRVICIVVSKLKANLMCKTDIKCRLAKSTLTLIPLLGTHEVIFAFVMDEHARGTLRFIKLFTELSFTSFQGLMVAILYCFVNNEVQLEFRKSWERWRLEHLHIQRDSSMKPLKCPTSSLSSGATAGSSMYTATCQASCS

The test concerns the target T1, human GLP-1 R (Homo sapiens, UniProt P43220).
T1 construct: expressed in transfected cells
Put plainly: Human GLP-1 receptor (GLP-1 R) activity assay, cAMP induction (AlphaScreen cAMP kit). It counts as cell-based. Conditions: HEK293 cells expressing the human GLP-1 R, 15 min at 37° C., average values of multiple determinations, read-out: GLP1 R (EC50 in nM). As to the method: Human GIP Receptor (GIP R) and GLP-1 Receptor (GLP-1 R) Activity Assay
In vitro effects of peptide conjugates of the invention were assessed by measuring the induction of cAMP following stimulation of the respective receptor by GIP, GLP1 or analogues of these, as outlined in the invention, using the AlphaSceen® cAMP kit from Perkin-Elmer according to instructions. Briefly. HEK293 cells expressing the human GIP R or GLP-1 R (stable cell lines generated through transfection of the cDNA for human GIP R or GLP-1 and selection of stable clones) were seeded at 30,000 cells/well in 96-well microtiter plates coated with 0.01% poly-L-lysine, and grown for 1 day in culture in 200 μl growth medium (DMEM, 10% FCS, Penicillin (100 IU/ml), Streptomycin (100 μg/ml)). On the day of analysis, growth medium was removed and the cells were washed once with […] Tyrode's buffer (Tyrode's Salts (9.6 g/1), 10 mM HEPES, pH 7.4). […] The Assay buffer was removed and cells are lysed in 80 μl Lysis buffer (0.1% w/v BSA, 5 mM HEPES, 0.3% v/v Tween-20) per well. From each well 10 μl lysed cells was transferred to a 384-well plate and mixed with 15 μl bead-mix (1 Unit/15 μl anti-cAMP Acceptor Beads, 1 Unit/15 μl Donor Beads, and 1 Unit/15 μl Biotinylated cAMP in Assay Buffer). The plates were mixed and incubated in the dark for an hour at room temperature before measuring using an Envision™ plate reader (Perkin-Elmer).
(In general: Bead proximity is the source of the signal in Alpha formats.)
Broadly, the EC50 is the concentration at which the effect is half-maximal. `CC[C@H](C)[C@H](NC(=O)[C@H](CO)NC(=O)[C@H](Cc1ccc(O)cc1)NC(=O)[C@H](CC(=O)O)NC(=O)[C@H](CO)NC(=O)[C@@H](NC(=O)[C@H](Cc1ccccc1)NC(=O)[C@@H](NC(=O)CNC(=O)[C@H](CCC(=O)O)NC(=O)C(C)(C)NC(=O)[C@@H](N)Cc1ccc(O)cc1)[C@@H](C)O)[C@@H](C)O)C(=O)N[C@@H](Cc1ccc(O)cc1)C(=O)N[C@@H](CC(C)C)C(=O)N[C@@H](CC(=O)O)C(=O)N[C@@H](CCC(=O)O)C(=O)N[C@@H](CCCCN)C(=O)N[C@@H](C)C(=O)N[C@@H](C)C(=O)N[C@@H](CCCCN)C(=O)N[C@@H](CC(=O)O)C(=O)N[C@@H](Cc1ccccc1)C(=O)N[C@H](C(=O)N[C@@H](CCC(=O)O)C(=O)N[C@@H](Cc1c[nH]c2ccccc12)C(=O)N[C@@H](CC(C)C)C(=O)N[C@@H](CC(C)C)C(=O)N[C@@H](CO)C(=O)N[C@@H](C)C(N)=O)C(C)C` [Compound 40] (H-Y[Aib]EGTFTSDYSIYLDEKAAKDFVEWLLSA-NH2): the concentration for a half-maximal effect (EC50) turned out to be 0.022 nM.
As for `CC[C@H](C)[C@H](NC(=O)[C@H](CO)NC(=O)[C@H](Cc1ccc(O)cc1)NC(=O)[C@H](CC(=O)O)NC(=O)[C@H](CO)NC(=O)[C@@H](NC(=O)[C@H](Cc1ccccc1)NC(=O)[C@@H](NC(=O)CNC(=O)[C@H](CCC(=O)O)NC(=O)C(C)(C)NC(=O)[C@@H](N)Cc1ccc(O)cc1)[C@@H](C)O)[C@@H](C)O)C(=O)N[C@@H](Cc1ccc(O)cc1)C(=O)N[C@@H](CC(C)C)C(=O)N[C@@H](CC(=O)O)C(=O)N[C@@H](CCCCN)C(=O)N[C@@H](CCCCN)C(=O)N[C@@H](C)C(=O)N[C@@H](CCC(N)=O)C(=O)N[C@@H](CCCNC(=N)N)C(=O)N[C@@H](C)C(=O)N[C@@H](Cc1ccccc1)C(=O)N[C@H](C(=O)N[C@@H](CCCCN)C(=O)N[C@@H](Cc1c[nH]c2ccccc12)C(=O)N[C@@H](CC(C)C)C(=O)N[C@@H](CC(C)C)C(=O)N[C@@H](C)C(=O)NC(C)(C)C(=O)N[C@@H](CCCCN)C(N)=O)C(C)C` [Compound 20] (H-Y[Aib]EGTFTSDYSIYLDKKAQRAFVKWLLA[Aib]K-NH2), the figure is 0.009 nM.
For `CC[C@H](C)[C@H](NC(=O)[C@H](CO)NC(=O)[C@H](Cc1ccc(O)cc1)NC(=O)[C@H](CC(=O)O)NC(=O)[C@H](CO)NC(=O)[C@@H](NC(=O)[C@H](Cc1ccccc1)NC(=O)[C@@H](NC(=O)CNC(=O)[C@H](CCC(=O)O)NC(=O)C(C)(C)NC(=O)[C@@H](N)Cc1ccc(O)cc1)[C@@H](C)O)[C@@H](C)O)C(=O)N[C@@H](C)C(=O)N[C@@H](CC(C)C)C(=O)N[C@@H](CC(=O)O)C(=O)N[C@@H](CCCCN)C(=O)N[C@@H](CCCCN)C(=O)N[C@@H](C)C(=O)N[C@@H](CCC(N)=O)C(=O)N[C@@H](CCCNC(=N)N)C(=O)N[C@@H](C)C(=O)N[C@@H](Cc1ccccc1)C(=O)N[C@H](C(=O)N[C@@H](CC(N)=O)C(=O)N[C@@H](Cc1c[nH]c2ccccc12)C(=O)N[C@@H](CC(C)C)C(=O)N[C@@H](CC(C)C)C(=O)N[C@@H](C)C(=O)NC(C)(C)C(=O)N[C@@H](CCCCN)C(N)=O)C(C)C` [Compound 12] (H-Y[Aib]EGTFTSDYSIALDKKAQRAFVNWLLA[Aib]K-NH2), the EC50 stood at 0.01 nM.
